The record followed here is ChEMBL document CHEMBL1155734, “Multiplolides A and B, new antifungal 10-membered lactones from Xylaria multiplex” (J Nat Prod, 2001).

In assay [1] the test system is Plasmodium falciparum. Description: Antimalarial activity as growth inhibition of Plasmodium falciparum K1 at 20 ug/mL by [3H]hypoxanthine uptake. It counts as functional, organism-based.
For assay [2], the system named is BC1. As to the kind of experiment: Cytotoxicity against human BC1 cells at 20 ug/mL. It counts as functional, cell-based.
The subject of assay [3] is KB. As to the kind of experiment: Cytotoxicity against human KB cells at 20 ug/mL. It counts as functional, cell-based.
Assay [4] has as its system Candida albicans. As to the kind of experiment: Antifungal activity against Candida albicans by colorimetric method. It counts as functional, organism-based.
The subject of assay [5] is Plasmodium falciparum. As to the kind of experiment: Antimalarial activity as growth inhibition of Plasmodium falciparum K1 by [3H]hypoxanthine uptake. The class given is functional, organism-based.

SMILES strings stand for the structures. Converted amounts (≈) assume the structure as drawn. The source made the active and inactive calls. The calls are words filed in the database; no cut-off is given here.

Broadly, the IC50 is the point on the concentration scale where inhibition reaches its midpoint. Low readings indicate greater potency in that assay, high ones weaker potency in that assay. As for `C/C=C/C(=O)O[C@@H]1C[C@@H](C)OC(=O)C2OC2/C=C/[C@@H]1O` (stereo not given in full) [MULTIPLOLIDE B], the outcome in assay [1], in assay [2] and in assay [3] was inactive. The molecule also gave a half-inhibitory concentration (IC50) in assay [4] of 2 µg/mL (≈ 7.08 µM).

`C[C@@H]1[C@H](O)[C@@H](C)/C=C/C=C/C=C/C=C/C=C/C=C/C=C/[C@H](O[C@@H]2O[C@H](C)[C@@H](O)[C@H](N)[C@@H]2O)C[C@@H]2O[C@](O)(C[C@@H](O)C[C@@H](O)[C@H](O)CC[C@@H](O)C[C@@H](O)CC(=O)O[C@H]1C)C[C@H](O)[C@H]2C(=O)O` [AMPHOTERICIN B] returned an IC50 in assay [4] of 0.01 µg/mL (≈ 0.0108 µM).

Molecule `C[C@@H]1CC[C@H]2[C@@H](C)C(=O)O[C@@H]3O[C@@]4(C)CC[C@@H]1[C@]32OO4` [ARTEMISININ] yielded an IC50 in assay [5] of 0.001 µg/mL (≈ 0.00354 µM).

Consider `C[C@@H]1C[C@@H](O)[C@@H](O)/C=C/[C@@H]2O[C@@H]2C(=O)O1` [MULTIPLOLIDE A], for which the result in assay [1], in assay [2] and in assay [3] was inactive. In assay [4], the IC50 stood at 7 µg/mL (≈ 32.7 µM).
